According to patent US20260315416A1, “PHENYLLACTIC ACID COMPOSITIONS AND RELATED METHODS OF USE” (priority 2023, published 2026):
≈ marks a conversion by molar mass, not a printed value.

Assays:
[1] = Thermogravimetric analysis (TGA), thermal stability; type: physicochemical; details: 30-350° C. at 10° C./min, nitrogen
Protocol: TA Instruments Discovery TGA 5500 (TA instruments, New Castle, DE, USA) was used to analyse pure PLA, carnitine, and various PLA ILs. The samples were accurately weighed (2-5 mg) in platinum pans and placed onto the autosampler. The samples were heated from 30° C. to 350° C. at 10° C./min; nitrogen was purged at a rate of 25 mL/min. TRIOS software (TA instruments, New Castle, DE, USA) was used to analyse the data.

[2] = Equilibrium (saturation) solubility in water; type: physicochemical; details: room temperature, HPLC; for saturation/equilibrium solubility in water: 24 h, 1440 min
Protocol: To evaluate the purity of the synthesized D- or L-PLA ILs and for the determination of their water solubility, a reverse phase-HPLC method was developed. The HPLC apparatus consisted of a Shimadzu LC2050C-3D system with a PDA detector. Samples were run through a C18 precolumn and a Gemini C18 reverse-phase column [150×4.5 mm (ID.)] with 5 μm particle size packing (Phenomenex, Torrance, CA). The mobile phase contained acetonitrile and 20 mM phosphoric acid solution in water (25:75). The flow rate of the mobile phase was at 0.8 mL/min, the column oven was set at 45° C., the injection volume was 10 μL, and the detection was carried out at 210 nm. The retention time for PLA was 5.5 min. For the standard curve, D- or L-PLA stock solutions (0.1 mg/mL) were prepared in methanol. The stock solutions were diluted to obtain solutions of various concentrations. The standard curve was obtained by injecting 5-25 μg/mL of PLA. All the experiments were performed in triplicate.
(§1) The equilibrium solubility of D-PLA, L-PLA, and their ILs was determined using a previously reported method.^30 An excess amount of D-PLA, L-PLA, or their ILs was added in an Eppendorf tube along with 1 mL of water. The sample was placed on an orbital shaker and was equilibrated at room temperature for 24 h with a speed of 200 rpm. After 24 h, the samples were centrifuged, the supernatant was filtered using a 0.22 μm syringe filter and further diluted using methanol as necessary. The D-PLA or L-PLA content in the supernatant was analyzed using the HPLC method to calculate the equilibrium solubility. Further, the pH values of D-PLA, L-PLA, and their ILs dissolved in water were determined using a VWR 1100L pH meter.

[3] = Kinetic solubility in water; type: physicochemical; details: vs equilibrium solubility
bacteria and fungi = details: D-PLA vs L-PLA; cited from earlier work
[4] = Differential scanning calorimetry (DSC), glass transition temperature; type: physicochemical; details: cool/heat 5° C./min, 30 to −80° C.
Protocol: The TA Instruments DSC 2500 RCS40 cooling unit (TA instruments, New Castle, DE, USA), calibrated with indium, was used to record thermograms of pure compounds of D-PLA, L-PLA, carnitine, and their corresponding ILs. The samples were weighed (6-10 mg) and hermetically sealed in Tzero aluminium pans, along with an empty reference Tzero pan. The atmosphere was inert because of nitrogen purge at a rate of 25 mL/min. The samples were heated from 30° C. to the temperature equivalent to a 5% weight loss point with a 5° C./min ramp for each sample to observe thermal transitions. The glass transition temperature (Tg) for each sample was recorded in the cool/heat run at 5° C./min ramp from 30° C. to −80° C., and from −80° C. to 30° C. TRIOS software (TA instruments, New Castle, DE, USA) was used to analyse the data.

[5] = tested on: human cervical epithelial cells (A2EN); test: MTT assay for cervical cell proliferation/viability; type: cell-based; details: 24 h; even at 50 mM
Protocol: (§2) Human endocervical epithelial cell line (A2EN), generated from human endocervical explant tissue^31, was cultured as monolayers in keratinocyte serum-free medium (KFSM) supplemented with recombinant epidermal growth factor (5 ng/ml), bovine pituitary extract (50 μg/ml; Gibco), CaCl2 ([…]; Sigma-Aldrich), and primocin (100 μg/ml; InvivoGen, San Diego, CA), herein referred to as A2 medium, at 37° C. under 5% carbon dioxide (CO2) atmosphere.
(§3) Prior to cytotoxicity testing, PLA ILs were diluted to 1 M concentrations with distilled water and filtered using a sterile 0.2 μm syringe filter. Solutions with pH ranging from 4 to 7.5 were prepared by adjusting the pH of A2 media with hydrochloric acid (HCl), following filtration using a sterile 0.2 μm syringe filter.
Cervical cell monolayers were seeded into a tissue-treated 96-well microtiter plate (Corning Costar) at a density of 2.0×10^4 cells/well and incubated for 24 h at 37° C. under 5% CO2. Cells were treated with each PLA IL at concentrations ranging to 3.125 to 100 mM and incubated for 24 h (37° C. under 5% CO2). […] Absorbance was measured at 570 nm (reference 650 nm) and recorded using the Safire II Multi-Mode Microplate reader (Tecan, Mannedorf, Switzerland). Percentage cell viability was calculated as [sample absorbance−media background absorbance]/[control absorbance−media background absorbance]×100. […]

[6] = tested on: human cervical epithelial cells (A2EN); test: Crystal violet staining for cervical cell morphology; type: cell-based; details: 24 h; even at 100 mM
Protocol: as §2, §3
Cervical cell morphology following PLA IL treatment was visualised using 2.3% crystal violet stain with 0.1% ammonium oxalate and 20% ethanol (Sigma-Aldrich). Cervical cell monolayers were seeded into a tissue-treated 24-well microtiter plate (Falcon) at a density of 1.5×10^5 cells/well and incubated for 24 h at 37° C. under 5% CO2. Two-fold serial dilutions of each PLA IL were prepared and aliquoted into respective wells to obtain final concentrations of 3.125 to 100 mM. Deionised water and 1% Conceptrol (v/v), containing the detergent, nonoxynol-9, were used as negative and positive controls, respectively. […]

[7] = pH determination of PLA ILs dissolved in water; type: physicochemical
Protocol: as §1

[8] = tested on: urogenital pathogens (Streptococcus agalactiae, Klebsiella pneumoniae, Candida albicans); details: in vitro; gram-positive, gram-negative and fungal urogenital pathogens; cited from earlier work
[9] = tested on: Salmonella enterica serovar Typhimurium-induced colitis; details: mice; cited from earlier work
[10] = tested on: peroxisome proliferator-activated receptor γ (PPAR-γ); details: mouse model, early-life antibiotic exposure and high-fat diet; cited from earlier work
[11] = tested on: cervicovaginal epithelial barrier; details: cited from earlier work

SMILES	T5% (onset temperature at 5% mass loss) [1] [°C]	saturation/equilibrium solubility in water [2] [mg/mL]	solubility thermodynamic at 24 h [2] [mg/mL]	kinetic solubility in water [3]	further results
O=C(O)[C@@H](O)Cc1ccccc1 [L-PLA]	156.07	> 25	25.7 ± 1.02 (≈ 154 mM)	considerably lower	
O=C(O)[C@H](O)Cc1ccccc1 [D-PLA]		> 25	33.1 ± 0.44 (≈ 199 mM)	considerably lower	antimicrobial activity of enantiomer (bacteria and fungi): greater antimicrobial activity than L-PLA
C[N+](C)(C)CCO.O=C([O-])[C@H](O)Cc1ccccc1 [Chol:D-PLA (1:1)]	94.3				glass transition temperature (Tg) [4]: −63.53 °C; cell viability [5]: did not significantly reduce cervical epithelial cell viability; morphological changes [6]: no morphological changes were observed; pH [7]: ~ 9
O=C(O)C(O)Cc1ccccc1 (centres unmarked) [PLA, 2-hydroxy-3-phenylpropanoic acid]				low kinetic solubility in water	antimicrobial properties [8]: exhibits antimicrobial properties; protection against colitis [9]: protect against Salmonella enterica serovar Typhimurium-induced colitis in mice; PPAR-γ activity [10]: upregulates intestinal peroxisome proliferator-activated receptor γ (PPAR-γ) activity
CC(O)C(=O)O (centres unmarked) [lactic acid]					anti-inflammatory activity [11]: anti-inflammatory activity; epithelial barrier integrity ([11]; physiological concentrations, tight junction protein expression): enhance cervicovaginal epithelial barrier integrity
C[N+](C)(C)C[C@H](O)CC(=O)[O-] [carnitine]	189.9				
